Experimental data as given in US20260256772A1, “BENZOTHIAZOLE COMPOUND AND USE THEREOF” (NANJING REJU THERAPEUTICS, INC., priority 2022, published 2026).

Legend:
Alzheimer's disease = Alzheimer's disease APP×PS1 transgenic mouse model; format: in vivo; settings: intraperitoneal injection, 11 consecutive weeks, twice a week, FIG. 8
Procedure: In this test example, the efficacy of the compounds of the present disclosure was tested on Alzheimer's disease in an animal model of Alzheimer's disease. Briefly, a transgenic mouse model of APP×PS1 (purchased from Cyagen Biosciences) was selected, and the compound of the present disclosure was administered by intraperitoneal injection for 11 consecutive weeks, twice a week. Alterations in amyloid in the cerebral cortex of the mice were observed.

[1] = tested on: wet-age-related macular degeneration; assay: CNV animal model of wet-age-related macular degeneration; format: in vivo, mice; settings: intravitreal (IVT), FIG. 5
Procedure: In this test example, the efficacy of the compounds of the present disclosure was tested on wet-age-related macular degeneration in a CNV animal model.
Male mice were administered 0.5% probacaine hydrochloride (Alcon) for local anesthesia, and 1% tropicamide to dilate the pupils of the mice. Laser cauterization was performed using a laser photocoagulator (Novus Varia, LUMENIS) with a slit lamp delivery system. And artificially torn adherent glass coverslips were used as contact lenses. Bleeding spots caused by lasers were not included in the statistics. In each experimental group, six mice were analyzed with four impacts per eye to overcome inherent variability.

aging skin = assay: Aging skin, naturally aging mouse model; format: in vivo, C57bl/6J mice; settings: skin application twice a week for 6 consecutive weeks, FIG. 10
Procedure: In this test example, aged female C57bl/6J mice (22 months old) were used. The drug was administered by skin application twice a week for 6 consecutive weeks.

senescent cells = assay: Senescent cell killing, CellTiter-Glo cell viability; format: cell-based, human, mouse; settings: activity of killing senescent cells; cell type not specified
Text: In this test example, human non-small cell lung cancer cell line (A549 cells), human embryonic lung fibroblast cell line (IMR90 cells), human retinal pigment epithelial cells (RPE cells), mouse chondrocytes, and mouse skin fibroblasts were selected. The above cells were induced by etoposide ([…]) to obtain their senescent cells. The effect of the target compounds on the viability of normal and senescent cells above was examined, thus assessing the specific killing effect of the compounds on senescent cells above.
Briefly, senescent and normal cells above were selected and plated separately (96-well plates). […] 2A to 2E.

osteoarthritis = assay: Osteoarthritis animal model; format: in vivo, mice; settings: intra-articular injection, FIG. 7
Procedure: In this test example, the efficacy of the compounds of the present disclosure was tested on osteoarthritis in an osteoarthritis animal model.
The osteoarthritis animal model was constructed by the following steps. The mice were anesthetized with isoflurane, and fixed. The hair on the right hind limb of the mice was shaved and the skin was disinfected with alcohol, and the skin of the joints was cut. Under an optical microscope, the inside of the right knee joint was incised longitudinally with a blade, without cutting the patellar ligament. The patellar ligament was pulled to one side with constant hemostasis by compression with sterile cotton swabs such that the joint cavity was fully exposed. Saline was added dropwise in time to avoid the drying up of the joint cavity. The excess muscle tissue was gently separated with a blunt forceps to expose the meniscus ligament. The anterior cruciate ligament was found in the depth of the joint cavity and cut with a micro scissor. Then the wound was disinfected with penicillin solution, the muscle was sutured with sterile needle and thread, and the skin tissue was finally sutured. The efficacy of the drug was determined by intra-articular injection administration. At the endpoint of the test, continued pain threshold of the plantar was detected, and the bone joints were stained with safranin fast green.

diabetic retinopathy = assay: Mouse model of diabetic retinopathy (STZ), retinal Evans blue penetration assay; format: in vivo; settings: intravitreal (IVT), 1 μL of 200 μM at 8 and 9 weeks after STZ, FIG. 4
Procedure: The efficacy of the compounds of the present disclosure was studied in a mouse model of diabetic retinopathy by multiple administrations of streptozotocin (STZ). C57BL/6J mice at 6 to 7 weeks were weighed and their baseline blood glucose was measured (Sino). STZ (Sigma-Alderich) was injected intraperitoneally into the mice at 55 mg/Kg for five consecutive days. Age-matched controls were injected with buffer only. Blood glucose was measured again one week after the last STZ injection. 1 μL of the test compound (200 μM, a suspension formulated in 0.015% polysorbate 80, 0.2% sodium phosphate, 0.75% sodium chloride, pH 7.2) was injected intravitreally into the STZ-treated diabetic C57BL/6J mice at 8 and 9 weeks after STZ administration. 10 weeks after STZ treatment, the retinal Evans blue penetration assay was performed.

[2] = tested on: idiopathic pulmonary fibrosis; assay: Idiopathic pulmonary fibrosis animal model (bleomycin); format: in vivo, SD rats; settings: intraperitoneal (IP) 5 mg/kg, 3 consecutive weeks, FIG. 6; for pathology scores: H&E and Masson staining; for WBC: alveolar lavage fluid; for HYP: lung tissue
Procedure: In this test example, the efficacy of the compounds of the present disclosure was tested on idiopathic pulmonary fibrosis in an idiopathic pulmonary fibrosis animal model. Briefly, anesthetized 6-week-old SD rats were fixed on a foam board with medical tape. Firstly, the skin on the surface of the trachea was cut with surgical scissors to fully expose the trachea, and a 100-microlitre micro-syringe containing a certain volume of bleomycin (BLM 5 mg/kg) solution drawn based on the body weight of the rat was inserted into the trachea through the oral cavity to administer by slow bolus injection. After administration of the BLM solution, the foam plate was immediately rotated and shaken to distribute the BLM solution as evenly as possible in the lung tissue. Then the skin on the surface of the trachea was sutured with surgical sutures and about 0.5 to 1.0 mL of penicillin solution was dripped onto the epidermis to prevent infection of the surgical wound. After the 7th day of modelling, the compound solution of the present disclosure was administered via intraperitoneal (IP) injection (5 mg/kg) according to the weight of the rat for 3 consecutive weeks. Rats were euthanized by carbon dioxide on Day 28, the lung tissues were removed, the left alveolar lavage fluid was collected for white blood cell (WBC) counting, the right lung tissue portion was used for hydroxyproline (HYP) assay, and the remaining lung tissues were stained for pathology by H&E staining and Masson staining.

platelets = assay: Platelet toxicity test in mice (platelet count); format: in vivo
Procedure: In this test example, C57 mice were chosen to detect the effect of the target compounds on platelets.
7 to 8 weeks old […] mice were randomly divided into vehicle group and compound group. The test compound (0.5 mg/kg) or blank vehicle was administrated via single intraperitoneal injection. Blood was collected from the retroorbital venous plexus of the mice at 6 hours, and placed in a blood routine tube containing anticoagulant EDTA-K2. After shaking gently, the blood physiological indicators were measured using a hematology analyzer, with the platelet count as the target parameter for this platelet toxicity test.

In the case of `Cc1c(-c2ccc(N3CCc4cccc(C(=O)Nc5nc6ccccc6s5)c4C3)nc2C(=O)N2CCN(CCO)CC2)cnn1CC12CC3CC(CC(C3)C1)C2` [RX002], the “Aβ42 pathogenic protein indicators” value (Alzheimer's disease) is reported as “statistically significant improvements”, the fluorescence intensity indicators [1] is reported as “statistically significant improvements” and the “epidermal thickness scores of the skins” value (aging skin) is reported as “statistically significant improvements”. For the same compound, the IC50 (senescent cells) was < 0.2 µM, the “pathology scores of safranin fast green staining” value (osteoarthritis) was “statistically significant improvements” and the “plantar mechanical pain threshold” value (osteoarthritis) was “statistically significant improvements”. The “vascular permeability, choroidal vascular leakage” value (diabetic retinopathy) was “improved”, the “vascular permeability, retinal vascular leakage” value (diabetic retinopathy) was “improved” and the pathology scores [2] was “statistically significant improvements”. For the same compound, the WBC [2] was “statistically significant improvements” and the HYP [2] was “statistically significant improvements”.

In the case of `Cc1c(-c2ccc(N3CCc4cccc(C(=O)Nc5nc6ccccc6s5)c4C3)nc2C(=O)NC2CCN(Cc3ccccc3)CC2)cnn1CC12CC3CC(CC(C3)C1)C2` [RX003], the “Aβ42 pathogenic protein indicators” value (Alzheimer's disease) is reported as “statistically significant improvements”, the fluorescence intensity indicators [1] is reported as “statistically significant improvements” and the “epidermal thickness scores of the skins” value (aging skin) is reported as “statistically significant improvements”. The “pathology scores of safranin fast green staining” value (osteoarthritis) was “statistically significant improvements”, the “plantar mechanical pain threshold” value (osteoarthritis) was “statistically significant improvements” and the “vascular permeability, choroidal vascular leakage” value (diabetic retinopathy) was “improved”. For the same compound, the “vascular permeability, retinal vascular leakage” value (diabetic retinopathy) was “improved”, the pathology scores [2] was “statistically significant improvements” and the WBC [2] was “statistically significant improvements”. The HYP [2] was “statistically significant improvements”.

`Cc1c(-c2ccc(N3CCc4cccc(C(=O)Nc5nc6ccccc6s5)c4C3)nc2C(=O)N2CCNC(=O)C2)cnn1CC12CC3CC(CC(C3)C1)C2` [RX004] gave an IC50 (senescent cells) of 0.2 to 1 µM.

`Cc1c(-c2ccc(N3CCc4cccc(C(=O)Nc5nc6ccccc6s5)c4C3)nc2C(=O)NCc2ccco2)cnn1CC12CC3CC(CC(C3)C1)C2` [RX005] was tested, and the IC50 (senescent cells) was > 10 µM.

`Cc1c(-c2ccc(N3CCc4cccc(C(=O)Nc5nc6ccccc6s5)c4C3)nc2C(=O)N2CCN(C)CC2)cnn1CC12CC3CC(CC(C3)C1)C2` [RX007] showed an IC50 (senescent cells) of 0.2 to 1 µM.

Compound `Cc1c(-c2ccc(N3CCc4cccc(C(=O)Nc5nc6ccccc6s5)c4C3)nc2C(=O)N2CCNCC2)cnn1CC12CC3CC(CC(C3)C1)C2` [RX008] has an IC50 (senescent cells) of 0.2 to 1 µM.

For `Cc1c(-c2ccc(N3CCc4cccc(C(=O)Nc5nc6ccccc6s5)c4C3)nc2C(=O)N2CCOCC2)cnn1CC12CC3CC(CC(C3)C1)C2` [RX009], the IC50 (senescent cells) was < 0.2 µM.

In the case of `Cc1c(-c2ccc(N3CCc4cccc(C(=O)Nc5nc6ccccc6s5)c4C3)nc2C(=O)NCC2CCOCC2)cnn1CC12CC3CC(CC(C3)C1)C2` [RX010], the IC50 (senescent cells) is reported as 0.2 to 1 µM.

For `Cc1c(-c2ccc(N3CCc4cccc(C(=O)Nc5nc6ccccc6s5)c4C3)nc2C(=O)N2CCC(CO)CC2)cnn1CC12CC3CC(CC(C3)C1)C2` [RX011], the IC50 (senescent cells) was < 0.2 µM and the “platelet toxicity (platelet count)” value (platelets; mouse, in vivo, ip, 0.5 mg/kg) was “significantly improved”.

For `Cc1c(-c2ccc(N3CCc4cccc(C(=O)Nc5nc6ccccc6s5)c4C3)nc2C(=O)NCCN2CCOCC2)cnn1CC12CC3CC(CC(C3)C1)C2` [RX012], the IC50 (senescent cells) was 0.2 to 1 µM.

In the case of `Cc1c(-c2ccc(N3CCc4cccc(C(=O)Nc5nc6ccccc6s5)c4C3)nc2C(=O)N2CCN(CCO)CC2)cnn1CC12CC3CC(CC(C3)C1)C2` [RX013], the IC50 (senescent cells) is reported as < 0.2 µM and the “platelet toxicity (platelet count)” value (platelets; mouse, in vivo, ip, 0.5 mg/kg) is reported as “significantly improved”.

`Cc1c(-c2ccc(N3CCc4cccc(C(=O)Nc5nc6ccccc6s5)c4C3)nc2C(=O)NCCO)cnn1CC12CC3CC(CC(C3)C1)C2` [RX014] was tested, and the IC50 (senescent cells) was 1 to 10 µM.

Work on `Cc1c(-c2ccc(N3CCc4cccc(C(=O)Nc5nc6ccccc6s5)c4C3)nc2C(=O)NCC(=O)O)cnn1CC12CC3CC(CC(C3)C1)C2` [RX015] yielded an IC50 (senescent cells) of 1 to 10 µM.

`Cc1c(-c2ccc(N3CCc4cccc(C(=O)Nc5nc6ccccc6s5)c4C3)nc2C(=O)N2CCN(CCN)CC2)cnn1CC12CC3CC(CC(C3)C1)C2` [RX016] was tested, and the IC50 (senescent cells) was 0.2 to 1 µM and the “platelet toxicity (platelet count)” value (platelets; mouse, in vivo, ip, 0.5 mg/kg) was “significantly improved”.

For `Cc1c(-c2ccc(N3CCc4cccc(C(=O)Nc5nc6ccccc6s5)c4C3)nc2C(=O)N2CCC(O)CC2)cnn1CC12CC3CC(CC(C3)C1)C2` [RX019], the IC50 (senescent cells) was < 0.2 µM and the “platelet toxicity (platelet count)” value (platelets; mouse, in vivo, ip, 0.5 mg/kg) was “significantly improved”.

In the case of `Cc1c(-c2ccc(N3CCc4cccc(C(=O)Nc5nc6ccccc6s5)c4C3)nc2C(=O)NCC(=O)OCc2ccccc2)cnn1CC12CC3CC(CC(C3)C1)C2` [RX020], the IC50 (senescent cells) is reported as > 10 µM.

`CCOC(=O)C(C)NC(=O)c1nc(N2CCc3cccc(C(=O)Nc4nc5ccccc5s4)c3C2)ccc1-c1cnn(CC23CC4CC(CC(C4)C2)C3)c1C` (centres unmarked) [RX021] was tested, and the IC50 (senescent cells) was 1 to 10 µM.

`CCOC(=O)CCC(NC(=O)c1nc(N2CCc3cccc(C(=O)Nc4nc5ccccc5s4)c3C2)ccc1-c1cnn(CC23CC4CC(CC(C4)C2)C3)c1C)C(=O)OCC` (centres unmarked) [RX022] was tested, and the IC50 (senescent cells) was > 10 µM.

In the case of `Cc1c(-c2ccc(N3CCc4cccc(C(=O)Nc5nc6ccccc6s5)c4C3)nc2C(=O)N2CCC(OP(=O)(O)O)CC2)cnn1CC12CC3CC(CC(C3)C1)C2` [RX302], the IC50 (senescent cells) is reported as < 0.2 µM.

In the case of `Cc1c(-c2ccc(N3CCc4cccc(C(=O)Nc5nc6ccccc6s5)c4C3)nc2C(=O)N2CCN(CCOP(=O)(O)O)CC2)cnn1CC12CC3CC(CC(C3)C1)C2` [RX304], the IC50 (senescent cells) is reported as < 0.2 µM and the “platelet toxicity (platelet count)” value (platelets; mice, 0.5 mg/kg single intraperitoneal injection, blood at 6 hours, FIG. 1) is reported as “significantly improved”.
